Measured values published in article PMC10132233 (Journal of Enzyme Inhibition and Medicinal Chemistry, 2023).

How the values were obtained:
[1] = target: T1, vascular endothelial growth factor receptor 2 (VEGFR2) (Homo sapiens, UniProt P35968); test: Small kinase panel, VEGFR2; format: biochemical; conditions: read-out: % kinase inhibition (relative to DMSO control) VEGFR2
T1 construct: purchased Reaction Biology Co. (Malvern, PA)
Method: Enzyme inhibitory assays were carried out as described in our previous reports in the literature. […] The HotSpot assay platform includes specific kinase/substrate pairs and required cofactors. The base reaction buffer consisted of 20 mM Hepes (pH 7.5), 10 mM MgCl2, 1 mM EGTA, 0.02% Brij35, 0.02 mg/mL BSA, 0.1 mM Na3VO4, 2 mM DTT, and 1% DMSO. The tested compounds were dissolved in 100% DMSO to a specific concentration, and serial dilution was conducted. The reaction mixture containing the tested compound and 33P-ATP was incubated at room temperature for 2 h, and radioactivity was detected using the filter-binding method.

[2] = test system: 22RV1 cells; test: Cell cycle analysis (PI, ADAMII LS), 22RV1; format: cell-based, human; conditions: 22RV1, compound at its IC50, 24 h
Method: Cell cycle progression is responsible for normal cell growth and proliferation. DNA damage can result in apoptosis, which causes cell death, or DNA repair. At specific checkpoints that serve as control mechanisms to guarantee correct cell division, the state of the cells is evaluated. Checkpoints in the cell cycle include the G1 (restriction), S […], and G2/M[29]. Anticancer medications’ function is to halt cell division at these checkpoints. Treatment with potent cytotoxic (as an anticancer) agents can determine at which phase apoptosis occurs in the cell cycle. […] PC3 and 22RV1 cells were treated with compound 9f at its IC50. The comparison data in Table 6 and Figure 3 indicate that compound 9f (test 2) arrested the cell cycle of 22RV1 and PC3 cells at the G2/M phase by 62.74% and 49.43%, respectively (Figure 3). Also, the cell population in G1 and S phases decreases after treatment (test 2) compared to a negative control (test 1).
To determine the effect of the tested compound on the cell cycle distribution of PC3 and 22RV1 cell lines. Cell cycles can be analysed with checking the cell cycle change compared to the control group. Control cells without any treatment were used as a reference point for determining the cell cycle arrest phase for the test sample. Cell cycle analysis was performed using the Cell Cycle Analysis Kit (ADAMII LS, NanoEntek, Seoul, South Korea). Briefly, cancer cells were first seeded in six-well plates (0.8 × 10^6 cells per well) and then incubated for 24 h at 37 °C in a 5% CO2-containing atmosphere. […] 25 µL of sample mixture was loaded into ADAMII LS assay slide, then the slide was incubated at room temperature for 1 min in the dark and run on the ADAMII LS fluorescence cell analyser. Cell cycle distribution was calculated using ADAMII LS software (ADAMII LS, NanoEntek, Seoul, South Korea).

T1 sequence (P35968 20-1356): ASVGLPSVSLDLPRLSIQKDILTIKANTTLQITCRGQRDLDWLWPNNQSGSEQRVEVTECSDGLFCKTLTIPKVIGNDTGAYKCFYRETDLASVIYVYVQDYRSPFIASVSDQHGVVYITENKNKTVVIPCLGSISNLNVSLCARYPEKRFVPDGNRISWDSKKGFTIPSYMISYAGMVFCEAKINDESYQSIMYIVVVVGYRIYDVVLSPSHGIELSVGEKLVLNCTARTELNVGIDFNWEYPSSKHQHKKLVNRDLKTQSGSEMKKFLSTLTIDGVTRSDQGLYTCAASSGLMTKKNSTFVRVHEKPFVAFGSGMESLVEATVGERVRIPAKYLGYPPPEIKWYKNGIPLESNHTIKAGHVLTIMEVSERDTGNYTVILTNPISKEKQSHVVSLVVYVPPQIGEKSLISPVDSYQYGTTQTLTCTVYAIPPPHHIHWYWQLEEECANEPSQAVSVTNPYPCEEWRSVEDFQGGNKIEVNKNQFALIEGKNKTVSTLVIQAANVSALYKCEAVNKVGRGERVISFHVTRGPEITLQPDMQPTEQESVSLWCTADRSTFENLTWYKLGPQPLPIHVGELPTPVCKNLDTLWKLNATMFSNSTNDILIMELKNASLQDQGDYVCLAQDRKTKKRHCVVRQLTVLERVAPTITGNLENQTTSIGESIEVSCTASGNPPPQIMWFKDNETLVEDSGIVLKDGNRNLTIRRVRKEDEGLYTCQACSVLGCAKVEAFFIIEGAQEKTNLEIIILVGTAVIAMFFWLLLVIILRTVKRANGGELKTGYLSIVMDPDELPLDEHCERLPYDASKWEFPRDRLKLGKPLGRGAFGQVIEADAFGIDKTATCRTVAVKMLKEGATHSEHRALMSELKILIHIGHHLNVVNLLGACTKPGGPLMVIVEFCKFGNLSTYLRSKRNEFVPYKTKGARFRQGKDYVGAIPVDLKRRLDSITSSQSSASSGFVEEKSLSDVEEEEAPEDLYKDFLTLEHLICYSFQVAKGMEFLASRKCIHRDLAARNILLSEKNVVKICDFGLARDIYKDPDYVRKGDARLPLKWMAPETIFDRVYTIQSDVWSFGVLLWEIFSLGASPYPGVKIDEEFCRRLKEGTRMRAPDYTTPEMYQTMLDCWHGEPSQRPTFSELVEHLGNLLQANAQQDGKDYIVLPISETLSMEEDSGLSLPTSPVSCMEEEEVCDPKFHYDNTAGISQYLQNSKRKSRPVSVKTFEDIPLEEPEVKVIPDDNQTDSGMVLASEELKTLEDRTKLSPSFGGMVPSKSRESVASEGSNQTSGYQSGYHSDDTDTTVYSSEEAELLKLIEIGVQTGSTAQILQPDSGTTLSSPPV

COc1cc2ncnc(Nc3ccc(Oc4cccc(C(F)(F)F)c4)c(Cl)c3)c2cc1OCCCCn1ccnc1[N+](=O)[O-] [Compound 9f, N-(3-Chloro-4-(3-(trifluoromethyl)phenoxy)phenyl)-7-methoxy-6-(4-(2-nitro-1H-imidazol-1-yl)butoxy)quinazolin-4-amine]
inhibition at 10 µM [1]: -4.46% | G0/G1 phase Percent [2]: 6.08% | G2/M phase Percent [2]: 62.74% | S phase Percent [2]: 9.13%
